Experimental data as given in PMC7413254 (Nature Communications, 2020).
Read-outs that look alike come from different tables or passages of the source.

Assays:
non-expressing oocytes = assay: cells; format: cell-based, Xenopus laevis; conditions: Xenopus laevis, total [3H]CQ transport; for inhibition at 500 µM: [test solute] = 0.5 mM; for inhibition at 1000 µM: [test solute] = 1 mM; for inhibition at 2000 µM: [test solute] = 2 mM
Procedure, shortened: (§1)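 Washed oocytes (ten per treatment) were exposed to label in pH 5.5 ND96 for 1.5 h at 27.5 °C. Buffer was then removed, cells rinsed in ice-cold ND96, lysed in SDS and counted.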

PfCRT^3D7 = PfCRT^3D7 (Plasmodium falciparum, UniProt Q8IBZ9); assay: cell-based; format: cell-based; conditions: total [3H]CQ transport; for inhibition at 500 µM: [test solute] = 0.5 mM; for inhibition at 1000 µM: [test solute] = 1 mM; for inhibition at 2000 µM: [test solute] = 2 mM
Chain of PfCRT^3D7 (Q8IBZ9 59-398): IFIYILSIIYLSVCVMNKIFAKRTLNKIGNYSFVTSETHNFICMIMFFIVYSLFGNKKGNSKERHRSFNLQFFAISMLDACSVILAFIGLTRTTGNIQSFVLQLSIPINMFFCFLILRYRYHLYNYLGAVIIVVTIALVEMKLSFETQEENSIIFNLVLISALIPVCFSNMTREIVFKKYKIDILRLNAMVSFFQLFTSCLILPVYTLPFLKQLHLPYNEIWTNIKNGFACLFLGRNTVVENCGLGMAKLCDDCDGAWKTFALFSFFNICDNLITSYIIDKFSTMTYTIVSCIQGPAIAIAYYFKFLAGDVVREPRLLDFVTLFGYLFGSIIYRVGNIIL
Procedure, shortened: as §1

PfCRT^Dd2 = PfCRT^Dd2 (Plasmodium falciparum, UniProt Q9N623, A220S/I356T/K76T/M74I/N326S/N75E/Q271E/R371I); assay: [3H]CQ uptake into Xenopus oocytes, cis-inhibition by unlabelled solute; format: cell-based
Chain of PfCRT^Dd2 (Q9N623 whole entry A220S/I356T/K76T/M74I/N326S/N75E/Q271E/R371I): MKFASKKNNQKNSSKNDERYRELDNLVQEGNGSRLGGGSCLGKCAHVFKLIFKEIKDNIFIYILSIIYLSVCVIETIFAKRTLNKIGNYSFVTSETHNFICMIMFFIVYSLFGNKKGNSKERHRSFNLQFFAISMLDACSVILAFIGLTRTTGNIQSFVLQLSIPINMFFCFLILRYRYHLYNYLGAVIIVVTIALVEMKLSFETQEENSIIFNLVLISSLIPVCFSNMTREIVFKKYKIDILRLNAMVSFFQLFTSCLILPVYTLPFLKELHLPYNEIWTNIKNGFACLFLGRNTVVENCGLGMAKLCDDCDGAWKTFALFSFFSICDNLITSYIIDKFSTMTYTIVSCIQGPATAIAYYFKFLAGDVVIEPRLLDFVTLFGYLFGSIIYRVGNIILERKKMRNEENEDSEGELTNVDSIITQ
Procedure, shortened: as §1

PfCRT^Ecu1110 = PfCRT^Ecu1110 (Plasmodium falciparum, UniProt Q9N623, A220S/I356L/K76T/N326D); assay: as above; format: cell-based
Chain of PfCRT^Ecu1110 (Q9N623 whole entry A220S/I356L/K76T/N326D): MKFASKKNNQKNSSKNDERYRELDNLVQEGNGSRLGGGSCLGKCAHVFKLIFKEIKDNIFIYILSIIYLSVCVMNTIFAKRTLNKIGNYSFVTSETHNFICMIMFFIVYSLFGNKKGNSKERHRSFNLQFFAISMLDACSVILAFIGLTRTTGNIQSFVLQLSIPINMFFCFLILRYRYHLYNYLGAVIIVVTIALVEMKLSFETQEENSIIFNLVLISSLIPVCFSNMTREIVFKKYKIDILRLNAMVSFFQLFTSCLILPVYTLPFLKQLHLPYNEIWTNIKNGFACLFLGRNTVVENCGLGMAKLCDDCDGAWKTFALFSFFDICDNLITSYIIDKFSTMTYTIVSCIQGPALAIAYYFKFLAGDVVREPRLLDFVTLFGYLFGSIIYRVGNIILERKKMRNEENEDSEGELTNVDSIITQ
Procedure, shortened: as §1

[1] = Oocyte, mean ± SEM, SEM, read-out: Uptake of [3H]CQ (% PfCRTDd2 control), cis-inhibition, non-expressing oocytes
[2] = non-expressing oocytes, normalised to the oocyte type control, read-out: Uptake of [3H]CQ (% non-expressing oocyte control), cis-inhibition
[3] = PfCRT3D7 oocytes, normalised to the oocyte type control, read-out: Uptake of [3H]CQ (% PfCRT3D7 control), cis-inhibition
[4] = mean ± SEM, SEM, read-out: Uptake of [3H]CQ (% PfCRTDd2 control), cis-inhibition, PfCRT3D7
[5] = read-out: PfCRT-mediated [3H]CQ transport, cis-inhibition (% PfCRTDd2 control)
[6] = read-out: Uptake of [3H]CQ (% PfCRTDd2 control), cis-inhibition
[7] = read-out: Uptake of [3H]CQ (% PfCRTDd2 control), cis-inhibition, PfCRTDd2, SEM
[8] = read-out: [3H]CQ transport (% PfCRTDd2 control), cis-inhibition, PfCRTDd2, SEM
[9] = read-out: PfCRT-mediated [3H]CQ transport, cis-inhibition (% PfCRTEcu1110 control)
[10] = read-out: Uptake of [3H]CQ (% PfCRTDd2 control), cis-inhibition, PfCRTEcu1110, SEM
[11] = read-out: Uptake of [3H]CQ (% PfCRTEcu1110 control), cis-inhibition

In the case of `CC(C)C[C@H](N)C(=O)O` [L-leucine], the inhibition at 500 µM (non-expressing oocytes; [1]) is reported as 3.2 ± 0.08%, the inhibition at 1000 µM (non-expressing oocytes; [1]) is reported as 2.8 ± 0.07% and the inhibition at 2000 µM (non-expressing oocytes; [1]) is reported as 2.9 ± 0.04%. For the same compound, the inhibition at 500 µM (non-expressing oocytes; [2]) was 100 ± 3.7%, the inhibition at 1000 µM (non-expressing oocytes; [2]) was 99 ± 4.6% and the inhibition at 2000 µM (non-expressing oocytes; [2]) was 99 ± 5.7%. The inhibition at 500 µM (PfCRT^3D7; [3]) was 98 ± 3.6%, the inhibition at 1000 µM (PfCRT^3D7; [3]) was 100 ± 4.7% and the inhibition at 2000 µM (PfCRT^3D7; [3]) was 99 ± 3.6%. The inhibition at 500 µM (PfCRT^3D7; [4]) was 3.2 ± 0.08%, the inhibition at 1000 µM (PfCRT^3D7; [4]) was 3.1 ± 0.08% and the inhibition at 2000 µM (PfCRT^3D7; [4]) was 3.8 ± 0.05%. It also gave an inhibition at 500 µM (PfCRT^Dd2; [5]) of 98 ± 4.7%, an inhibition at 1000 µM (PfCRT^Dd2; [5]) of 96 ± 4.2% and an inhibition at 2000 µM (PfCRT^Dd2; [5]) of 98 ± 4.7%. It also gave an inhibition at 500 µM (PfCRT^Dd2; [6]) of 100 ± 3.8%, an inhibition at 1000 µM (PfCRT^Dd2; [6]) of 98 ± 3.1% and an inhibition at 2000 µM (PfCRT^Dd2; [6]) of 100 ± 1.9%. For the same compound, the inhibition at 500 µM (PfCRT^Dd2; [7]) was 100 ± 3.8%, the inhibition at 1000 µM (PfCRT^Dd2; [7]) was 98 ± 3.1% and the inhibition at 2000 µM (PfCRT^Dd2; [7]) was 100 ± 1.9%. The inhibition at 500 µM (PfCRT^Dd2; [8]) was 98 ± 4.7%, the inhibition at 2000 µM (PfCRT^Dd2; [8]) was 98 ± 4.7% and the inhibition at 500 µM (PfCRT^Ecu1110; [9]) was 99 ± 5.1%. It also gave an inhibition at 1000 µM (PfCRT^Ecu1110; [9]) of 97 ± 3.1%, an inhibition at 2000 µM (PfCRT^Ecu1110; [9]) of 99 ± 2.1% and an inhibition at 500 µM (PfCRT^Ecu1110; [10]) of 33 ± 1.6%. The inhibition at 1000 µM (PfCRT^Ecu1110; [10]) was 32 ± 1.3%, the inhibition at 2000 µM (PfCRT^Ecu1110; [10]) was 33 ± 1.5% and the inhibition at 500 µM (PfCRT^Ecu1110; [11]) was 102 ± 4.2%. For the same compound, the inhibition at 1000 µM (PfCRT^Ecu1110; [11]) was 98 ± 4.2%.
